Test results taken from US12576040B2, “Ionizable lipids and methods of manufacture and use thereof” (priority 2020, dated 2026).
Where two headings read alike, the source gives them in different places.

Experiments:
[1] = assay type: physicochemical; conditions: Table 11a
Description: In certain embodiments, the pKa of the Ionizable Lipids of the Invention included in the LNP is measured by fluorescent enhancement of an anionic lipophilic dye TNS binding to the LNP containing the ionizable lipid. Prior studies have shown that the TNS pKa needs to be near 6.5 for efficient delivery to liver upon IV administration. The pKa in the aqueous phase can be predicted by software such ACDLabs Percepta, resulting in pKas that are higher than the TNS pKa. Given the importance of the LNP pKa in determining their efficiency, we developed new methods (zeta potential, ^1H NMR, modeling) to link the intrinsic pKa of the ionizable lipid to LNP ionization properties, in order to rationally design effective systems for mRNA delivery.
In certain embodiments, the hydrophilic DMG-PEG forms the shell of the LNP. The amount of nucleic acid is represented by the NP mole ratio of the amine on the ionizable lipid to the phosphate groups on the nucleic acid backbone and is typically 3-6. In certain embodiments, the pKa of the LNP to be in the 6-7 range corresponding to the pH in the early endosome. […] The pKa of the LNP was measured using the pH-dependence of fluorescence enhancement of the anionic dye TNS. In certain embodiments, the pKa-dependent endosomal release mechanism was described as an ion-pairing event between the cationic protonated ionizable lipid and anionic endosomal phospholipids where a divergent cone-shape lipid tail of the ionizable lipid facilitates membrane rupture.

[2] = Table 11a; known ionizable lipids, LNP pKa; cited from earlier work
[3] = mRNA copies per LNP from molecular volume model and DLS diameter; assay type: physicochemical; conditions: average mRNA copies per LNP
Description: Exemplary ADDE ionizable lipids. pKas were obtained from ACDLabs Percepta for the ionizable lipid, and by zeta potential and TNS for LNPs containing the ionizable lipids. LNP isoelectric pI was obtained from the zeta potential. LNP diameter is number-average from DLS. Average mRNA copies per LNP was calculated using a molecular volume model and the DLS diameter and is proportional to LNP volume.
LNPs were diluted to 6.25 ng/μL total mRNA in PBS pH=7.4 and transferred into a quartz cuvette (ZEN2112) to measure size by Dynamic Light Scattering (DLS) in the Zetasizer Nano ZS (Malvern Panalytical) using particle RI of 1.45 and absorption of 0.001 in PBS at 25° C. with viscosity of 0.888 cP and RI of 1.335. Measurements were made using a 1730 backscatter angle of detection previously equilibrated to 25° C. for 30 seconds in duplicates, each with 5 runs and 10 second run duration, without delay between measurements. […] Data was analyzed using a General-Purpose model with normal resolution. Diameter are reported as the number-average that corresponds more closely to physical size seen in electron microscopy versus the zeta-average. A molecular volume model described previously was used to estimate the number of mRNA copies in the LNP using the number average diameter to calculate LNP volume. LNPs were diluted into the TNS buffer described above at pH ranging from 3-10 for zeta potential measurement by Electrophoretic Light Scattering (ELS) in the Zetasizer Nano ZP (Malvern Panalytical) using the same material and dispersant parameters described above and the Smoluchowski model. Each measurement had voltage set manually at 80 Volts to avoid ohmic heating that occurred if voltage was set automatically. Measurements in the disposable folded capillary cuvette with an automatic attenuation selection for photon counts were made in triplicates for 20 runs each, and 30 second delay between each replicate. Mathematica was used to fit zeta potential data to the data to the extended Henderson-Hasselbalch equation Ψ=Ψ_max−((Ψ_max−Ψ_min))/((1+10^(((pKa−pH))/n))) to provide the pKa, n and low pH and high pH zeta potential limits Ψ_max and Ψ_min, respectively. The extended model is used here, since the LNP pKa is ionization-state-dependent in a way similar to a polyelectrolyte. […] The isoelectric pI was the pH found by interpolating zeta potential to zero. Cryoelectron Microscopy

[4] = assay type: physicochemical; conditions: LNP containing the ionizable lipid
Description: • A: Ribogreen Assay for mRNA Encapsulation Efficiency. 1×TE Buffer and Triton Buffer (2% v/v in 1×TE Buffer) were added in duplicates into a black microplate per LNP. LNPs were diluted to 4 ng/ul in 1×DPBS pH 7.4 and added to each TE/Triton well in a ratio 1:1. Two standard curves were included in the Ribogreen Assay, one containing mRNA and 1×TE Buffer and other containing mRNA and Triton Buffer. Each one of these standard curves were used to calculate the mRNA concentration in each TE Buffer or Triton Buffer. This approach using two standard curves is more accurate for calculating the encapsulation efficiency and mRNA concentrations, in comparison to a single standard curve. Standards were included in the microplate after diluted LNPs were added to the plate. Microplates were incubated at 37° C. for 10 minutes to extract LNPs with Triton. Ribogreen reagent was diluted 1:100 in 1×TE Buffer and added to each well in a ratio 1:1. Microplates were immediately introduced into the Cytation 5 Cell Imaging Multi-Mode Reader (Biotek) to read Fluorescence (Ex485/Em528). The results are illustrated in FIG. 34. • B: Dynamic Light Scattering for LNP Size (red dots are PDI right y axis). LNPs were diluted to 6.25 ng/ul in 1×DPBS pH 7.4 and transferred into a quartz cuvette (ZEN2112) to measure size by Dynamic Light Scattering (DLS) in the Zetasizer Nano ZS (Malvern Panalytical) using particle RI of 1.45 and Absorption of 0.001 in 1×PBS at 25° C. with viscosity of 1.02 cP and RI of 1.335. Measurements were made using a 173° Backscatter angle of detection previously equilibrated to 25° C. for 30 seconds in duplicates, each with 5 runs and 10 second run duration, without delay between measurements. […] Data was analyzed using a General-Purpose model with normal resolution. The results are illustrated in FIG. 35. • C: Zeta Potential for LNP charge, pKa and pI. LNPs were diluted in a 75 mM TNS Buffer (10 mM of each of glycylglycine, acetate, imidazole, 20 mM borate, 25 mM NaCl) to contain 0.8 mg of total mRNA in 800 ul of the TNS Buffer and transferred into a Folded Capillary Zeta Cell (DTS1070) to measure size by Dynamic Light Scattering (DLS) and electrophoretic mobility by Electrophoretic Light Scattering (ELS) in the Zetasizer Nano ZS (Malvern Panalytical). Zeta potential is measured under conditions of controlled voltage to limit ohmic heating in a solution with 4 buffers with pKas spread across the pH range 3-10 with 0.5 intervals. LNP pKa is calculated by fitting the Henderson Hasselbalch equation to zeta potential data. LNP pI is found by interpolating zeta potential to zero. We use electrokinetic models to calculate Henry's function and charge of the LNP. The results are illustrated in FIG. 36. • D: TNS Assay for LNP pKa. […] Fluorescence TNS is measured in a solution with 4 buffers with pKas spread across the pH range 3-10 with 0.5 intervals. The pKa of the LNP was measured using the pH-dependence of fluorescence enhancement of the anionic dye TNS, higher intensity at lower pH and lower at high pH. LNP pKa is calculated by fitting the Henderson Hasselbalch equation to fluorescence data from the TNS Assay. […]
LNP pKa was determined using the TNS assay. […] The Cytation 5 Cell Imaging Multi-Mode Reader (Biotek) was used to read Fluorescence (Ex321/Em445). The pH was measured in each well after TNS addition. […]

[5] = assay type: physicochemical; conditions: for pKa,ZP: LNP containing the ionizable lipid, Henderson Hasselbalch fit to zeta potential; for pI, ZP: LNP isoelectric pI from zeta potential
Description: (§1) • A: Ribogreen Assay for mRNA Encapsulation Efficiency. 1×TE Buffer and Triton Buffer (2% v/v in 1×TE Buffer) were added in duplicates into a black microplate per LNP. LNPs were diluted to 4 ng/ul in 1×DPBS pH 7.4 and added to each TE/Triton well in a ratio 1:1. Two standard curves were included in the Ribogreen Assay, one containing mRNA and 1×TE Buffer and other containing mRNA and Triton Buffer. Each one of these standard curves were used to calculate the mRNA concentration in each TE Buffer or Triton Buffer. This approach using two standard curves is more accurate for calculating the encapsulation efficiency and mRNA concentrations, in comparison to a single standard curve. Standards were included in the microplate after diluted LNPs were added to the plate. Microplates were incubated at 37° C. for 10 minutes to extract LNPs with Triton. Ribogreen reagent was diluted 1:100 in 1×TE Buffer and added to each well in a ratio 1:1. Microplates were immediately introduced into the Cytation 5 Cell Imaging Multi-Mode Reader (Biotek) to read Fluorescence (Ex485/Em528). The results are illustrated in FIG. 34. • B: Dynamic Light Scattering for LNP Size (red dots are PDI right y axis). LNPs were diluted to 6.25 ng/ul in 1×DPBS pH 7.4 and transferred into a quartz cuvette (ZEN2112) to measure size by Dynamic Light Scattering (DLS) in the Zetasizer Nano ZS (Malvern Panalytical) using particle RI of 1.45 and Absorption of 0.001 in 1×PBS at 25° C. with viscosity of 1.02 cP and RI of 1.335. Measurements were made using a 173° Backscatter angle of detection previously equilibrated to 25° C. for 30 seconds in duplicates, each with 5 runs and 10 second run duration, without delay between measurements. […] Data was analyzed using a General-Purpose model with normal resolution. The results are illustrated in FIG. 35. • C: Zeta Potential for LNP charge, pKa and pI. LNPs were diluted in a 75 mM TNS Buffer (10 mM of each of glycylglycine, acetate, imidazole, 20 mM borate, 25 mM NaCl) to contain 0.8 mg of total mRNA in 800 ul of the TNS Buffer and transferred into a Folded Capillary Zeta Cell (DTS1070) to measure size by Dynamic Light Scattering (DLS) and electrophoretic mobility by Electrophoretic Light Scattering (ELS) in the Zetasizer Nano ZS (Malvern Panalytical). Zeta potential is measured under conditions of controlled voltage to limit ohmic heating in a solution with 4 buffers with pKas spread across the pH range 3-10 with 0.5 intervals. LNP pKa is calculated by fitting the Henderson Hasselbalch equation to zeta potential data. LNP pI is found by interpolating zeta potential to zero. We use electrokinetic models to calculate Henry's function and charge of the LNP. The results are illustrated in FIG. 36. • D: TNS Assay for LNP pKa. LNPs were diluted to keep a final concentration of 75 uM of the ionizable lipid and 6 uM of TNS in a 75 mM TNS Buffer (10 mM of each of glycylglycine, acetate, imidazole, 20 mM borate, 25 mM NaCl) in order to keep a ratio TNS/ionizable of 0.08. Fluorescence TNS is measured in a solution with 4 buffers with pKas spread across the pH range 3-10 with 0.5 intervals. The pKa of the LNP was measured using the pH-dependence of fluorescence enhancement of the anionic dye TNS, higher intensity at lower pH and lower at high pH. LNP pKa is calculated by fitting the Henderson Hasselbalch equation to fluorescence data from the TNS Assay. The results are illustrated in FIG. 37.
LNPs were diluted to 6.25 ng/μL total mRNA in PBS pH=7.4 and transferred into a quartz cuvette (ZEN2112) to measure size by Dynamic Light Scattering (DLS) in the Zetasizer Nano ZS (Malvern Panalytical) using particle RI of 1.45 and absorption of 0.001 in PBS at 25° C. with viscosity of 0.888 cP and RI of 1.335. Measurements were made using a 1730 backscatter angle of detection previously equilibrated to 25° C. for 30 seconds in duplicates, each with 5 runs and 10 second run duration, without delay between measurements. […]

[6] = Dynamic Light Scattering for LNP size; assay type: physicochemical; conditions: number-average from DLS
Description: as §1, with “37. […]” for “37.”

Structure (SMILES)	ΔpKa = Classic-Galas [1]	ΔpKa = Classic-TNS [1]	pKa, TNS [2]	mRNA copies [3]	pKa, TNS [4]	pKa,ZP [5]	pI, ZP [5]	Diameter (nm) [6]
CCCCCCCC(=O)N(CCCN1CCCC1)C(CCCCCCCCC(=O)OC(CCCC)CCCCCC)CCCCCCCCC(=O)OC(CCCC)CCCCCC (stereo not shown) [Acuitas Compound 15]	3.38	3.98	6.32	–	–	–	–	–
CCCCC/C=C\C/C=C\CCCCCCCCOC(=O)CCN(CCC(=O)OCCCCCCCC/C=C\C/C=C\CCCCC)CCN1CCN(C)CC1 (racemic) [DL-C2/C2-PipZ]	–	–	–	4.3	7.8	6.2	7.6	64 nm
CCCCCCCC/C=C\CCCCCCCC(=O)OCC(CN(C)C)OC(=O)CCCCCCC/C=C\CCCCCCCC (stereo not shown) [DODAP, 1,2-dioleoyl-3-dimethylammonium propane]	1.8	2.2	5.8	–	–	–	–	–
CCCCC/C=C\C/C=C\CCCCCCCCC(CCCCCCCC/C=C\C/C=C\CCCCC)OC(=O)CCCN(C)C [MC3]	2.66	2.96	6.44	–	–	–	–	–
CCCCC/C=C\C/C=C\CCCCCCCCOC(=O)CCN(CCC(=O)OCCCCCCCC/C=C\C/C=C\CCCCC)CCN(C)C (racemic) [DL-C2/C2-DMA]	–	–	–	1.1	8.0	6.9	7.1	40 nm
